The results in this text go back to patent US20240299385A1 (ReWind Therapeutics NV, priority 2021, published 2024).

For this assay, the target named is T1, human GPR17 receptor (Homo sapiens, UniProt Q13304).
T1 construct: host or cells: HEK-293
T1 sequence (Q13304 whole entry): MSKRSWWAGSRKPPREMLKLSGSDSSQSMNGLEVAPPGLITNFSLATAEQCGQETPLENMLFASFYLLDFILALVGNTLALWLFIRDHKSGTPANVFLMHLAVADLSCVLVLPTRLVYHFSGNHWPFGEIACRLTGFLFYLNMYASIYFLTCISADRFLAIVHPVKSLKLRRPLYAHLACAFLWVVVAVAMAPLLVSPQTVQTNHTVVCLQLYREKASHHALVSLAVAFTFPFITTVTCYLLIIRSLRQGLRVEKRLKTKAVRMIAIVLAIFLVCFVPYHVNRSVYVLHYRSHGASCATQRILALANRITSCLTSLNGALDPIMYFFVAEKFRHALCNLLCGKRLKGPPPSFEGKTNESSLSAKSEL
The assay can be described thus: Calcium mobilization functional assay (Fluo-8, FLIPR TETRA) in HEK-293 hGPR17 (Gα-q assay). Format: cell-based. To be noted: antagonism of MDL29,951 (~EC80) induced Ca2+ signal; cell line (HEK-293 hGPR17 or HEK-293 Suchi5 hGPR17) not given. The method, boiled down:
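Fluo-8-loaded HEK-293 hGPR17 cells (60 min dye loading, room temperature) were preincubated with compound for twenty minutes, then challenged with agonist MDL29,951 at ~EC80, 500 nM. Intracellular calcium release via Gα-q was recorded as FLIPR fluorescence for a further 2 minutes; compounds tested in duplicate.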
On the technique in general: Calcium assays in cells follow changes in intracellular calcium, usually with a dye or a luminescent sensor.
`N#Cc1ccc(NS(=O)(=O)c2c[nH]c(-c3cccc(C(F)(F)F)n3)c2)c(F)c1` [Cpd 373, N-(4-cyano-2-fluoro-phenyl)-5-[6-(trifluoromethyl)-2-pyridyl]-1H-pyrrole-3-sulfonamide]: the IC50 (commonly the point on the concentration scale where inhibition reaches its midpoint) fell in the range of 0.5 to 5 µM. Then `N#Cc1ccc(NS(=O)(=O)c2c[nH]c(-c3cccc(Br)n3)c2)c(F)c1` [Cpd 374, 5-(6-bromo-2-pyridyl)-N-(4-cyano-2-fluoro-phenyl)-1H-pyrrole-3-sulfonamide], with below 0.5 µM. The result for `O=S(=O)(Nc1cnc(C(F)(F)F)s1)c1c[nH]c(-c2ccccc2)c1` [Cpd 375, 5-phenyl-N-[2-(trifluoromethyl)thiazol-5-yl]-1H-pyrrole-3-sulfonamide] reads 5 to 50 µM; that for `O=S(=O)(Nc1cc(Cl)c(C(F)(F)F)cc1F)c1c[nH]c(-c2ccccc2)c1` [Cpd 378, N-[5-chloro-2-fluoro-4-(trifluoromethyl)phenyl]-5-phenyl-1H-pyrrole-3-sulfonamide], 0.5 to 5 µM; that for `O=S(=O)(Nc1cc(Cl)c(C(F)(F)F)cc1F)c1c[nH]c(-c2ccccn2)c1` [Cpd 379, N-[5-chloro-2-fluoro-4-(trifluoromethyl)phenyl]-5-pyridin-2-yl-1H-pyrrole-3-sulfonamide], 0.5 to 5 µM. The result for `N#Cc1ccc(NS(=O)(=O)c2c[nH]c(-c3cccc4cccnc34)c2)c(F)c1` [Cpd 380, N-(4-cyano-2-fluorophenyl)-5-(guinolin-8-yl)-1H-pyrrole-3-sulfonamide] reads below 0.5 µM; that for `N#Cc1ccc(NS(=O)(=O)c2c[nH]cc2-c2cccc3ccccc23)c(F)c1` [Cpd 381, N-(4-cyano-2-fluorophenyl)-4-naphthalen-1-yl-1H-pyrrole-3-sulfonamide], 5 to 50 µM. Consider `N#Cc1ccc(NS(=O)(=O)c2c[nH]c(-c3cccc4ccccc34)c2)c(F)c1` [Cpd 382, N-(4-cyano-2-fluorophenyl)-5-naphthalen-1-yl-1H-pyrrole-3-sulfonamide], for which the IC50 was 0.5 to 5 µM. Then `Cc1c(C(F)(F)F)ccc(NS(=O)(=O)c2c[nH]c(-c3ccccn3)c2)c1F` [Cpd 383, N-[2-fluoro-3-methyl-4-(trifluoromethyl)phenyl]-5-pyridin-2-yl-1H-pyrrole-3-sulfonamide], with 5 to 50 µM. The result for `Cc1ccccc1Cc1c[nH]cc1S(=O)(=O)Nc1ccc(C#N)cc1F` [Cpd 384, N-(4-cyano-2-fluorophenyl)-4-[(2-methylphenyl)methyl]-1H-pyrrole-3-sulfonamide] reads 0.5 to 5 µM.

Turning to `Cc1ccc(Cc2c[nH]cc2S(=O)(=O)Nc2ccc(C#N)cc2F)cc1` [Cpd 385, N-(4-cyano-2-fluorophenyl)-4-[(4-methylphenyl)methyl]-1H-pyrrole-3-sulfonamide], the IC50 was in the range of 5 to 50 µM. Then `N#Cc1ccc(NS(=O)(=O)c2c[nH]cc2Cc2ccccc2C(F)(F)F)c(F)c1` [Cpd 386, N-(4-cyano-2-fluorophenyl)-4-[[2-(trifluoromethyl)phenyl]methyl]-1H-pyrrole-3-sulfonamide], with 5 to 50 µM; and `N#Cc1ccc(NS(=O)(=O)c2c[nH]cc2Cc2ccc(C(F)(F)F)cc2)c(F)c1` [Cpd 387, N-(4-cyano-2-fluorophenyl)-4-[[4-(trifluoromethyl)phenyl]methyl]-1H-pyrrole-3-sulfonamide], with 5 to 50 µM; and `N#Cc1ccc(NS(=O)(=O)c2c[nH]cc2Cc2ccccc2OC(F)(F)F)c(F)c1` [Cpd 388, N-(4-cyano-2-fluorophenyl)-4-[[2-(trifluoromethoxy)phenyl]methyl]-1H-pyrrole-3-sulfonamide], with 0.5 to 5 µM.

`N#Cc1ccc(NS(=O)(=O)c2c[nH]cc2Cc2ccc(OC(F)(F)F)cc2)c(F)c1` [Cpd 389, N-(4-cyano-2-fluorophenyl)-4-[[4-(trifluoromethoxy)phenyl]methyl]-1H-pyrrole-3-sulfonamide]: the IC50 fell in the range of 5 to 50 µM. Take `N#Cc1ccc(NS(=O)(=O)c2c[nH]cc2Cc2cccc(Br)c2)c(F)c1` [Cpd 391, 4-[(3-bromophenyl)methyl]-N-(4-cyano-2-fluorophenyl)-1H-pyrrole-3-sulfonamide]: the IC50 is below 0.5 µM. Regarding `N#Cc1ccc(NS(=O)(=O)c2c[nH]cc2Cc2ccsc2)c(F)c1` [Cpd 392, N-(4-cyano-2-fluorophenyl)-4-(thiophen-3-ylmethyl)-1H-pyrrole-3-sulfonamide], the IC50 was below 0.5 µM. The result for `O=S(=O)(Nc1cc(F)c(C(F)(F)F)cc1F)c1c[nH]c(-c2cc(F)ccc2F)c1` [Cpd 393, 5-(2,5-difluorophenyl)-N-[2,5-difluoro-4-(trifluoromethyl)phenyl]-1H-pyrrole-3-sulfonamide] reads below 0.5 µM; that for `COc1c(Cl)cccc1-c1cc(S(=O)(=O)Nc2ccc(C#N)cc2F)c[nH]1` [Cpd 394, 5-(3-chloro-2-methoxyphenyl)-N-(4-cyano-2-fluorophenyl)-1H-pyrrole-3-sulfonamide], below 0.5 µM. The result for `N#Cc1ccc(NS(=O)(=O)c2c[nH]c(-c3nccc4ccccc34)c2)c(F)c1` [Cpd 396, N-(4-cyano-2-fluorophenyl)-5-isoquinolin-1-yl-1H-pyrrole-3-sulfonamide] reads below 0.5 µM; that for `N#Cc1ccc(NS(=O)(=O)c2c[nH]c(-c3ccccc3OC3CC3)c2)c(F)c1` [Cpd 397, N-(4-cyano-2-fluorophenyl)-5-(2-cyclopropyloxyphenyl)-1H-pyrrole-3-sulfonamide], 0.5 to 5 µM; that for `N#Cc1ccc(NS(=O)(=O)c2c[nH]cc2-c2cccs2)c(F)c1` [Cpd 398, N-(4-cyano-2-fluorophenyl)-4-thiophen-2-yl-1H-pyrrole-3-sulfonamide], 0.5 to 5 µM. As for `O=S(=O)(Nc1cc(OC(F)F)c(Cl)cc1F)c1c[nH]c(-c2ccccc2)c1` [Cpd 399, N-[4-chloro-5-(difluoromethoxy)-2-fluorophenyl]-5-phenyl-1H-pyrrole-3-sulfonamide], the IC50 was in the range of 0.5 to 5 µM. Turning to `N#Cc1ccc(NS(=O)(=O)c2c[nH]cc2-c2ccsc2)c(F)c1` [Cpd 400, N-(4-cyano-2-fluorophenyl)-4-thiophen-3-yl-1H-pyrrole-3-sulfonamide], the IC50 lay in the range of 0.5 to 5 µM. The result for `Cc1cc(-c2c[nH]cc2S(=O)(=O)Nc2ccc(C#N)cc2F)cs1` [Cpd 401, N-(4-cyano-2-fluorophenyl)-4-(5-methylthiophen-3-yl)-1H-pyrrole-3-sulfonamide] reads below 0.5 µM.

As for `N#Cc1ccc(NS(=O)(=O)c2c[nH]cc2-c2cccc(C3CC3)c2)c(F)c1` [Cpd 402, N-(4-cyano-2-fluorophenyl)-4-(3-cyclopropylphenyl)-1H-pyrrole-3-sulfonamide], the concentration for half-maximal inhibition (IC50) was 5 to 50 µM. The result for `O=S(=O)(Nc1cc(F)c(OC(F)F)cc1F)c1c[nH]c(-c2nccs2)c1` [Cpd 403, N-[4-(difluoromethoxy)-2,5-difluorophenyl]-5-(1,3-thiazol-2-yl)-1H-pyrrole-3-sulfonamide] reads below 0.5 µM; that for `O=S(=O)(Nc1cc(F)c(OC(F)F)cc1F)c1c[nH]c(-c2ncccc2F)c1` [Cpd 404, N-[4-(difluoromethoxy)-2,5-difluorophenyl]-5-(3-fluoropyridin-2-yl)-1H-pyrrole-3-sulfonamide], below 0.5 µM; that for `N#Cc1cc(F)c(NS(=O)(=O)c2c[nH]cc2Cc2ccccc2)cc1F` [Cpd 407, 4-benzyl-N-(4-cyano-2,5-difluorophenyl)-1H-pyrrole-3-sulfonamide], below 0.5 µM.

Turning to `O=S(=O)(Nc1ncc(OC(F)F)cc1F)c1c[nH]c(-c2ccccc2)c1` [Cpd 408, N-[5-(difluoromethoxy)-3-fluoropyridin-2-yl]-5-phenyl-1H-pyrrole-3-sulfonamide], the IC50 was 0.5 to 5 µM. Then `O=S(=O)(Nc1cc(F)c(OC(F)F)cc1F)c1c[nH]c(-c2ccccc2F)c1` [Cpd 409, N-[4-(difluoromethoxy)-2,5-difluorophenyl]-5-(2-fluorophenyl)-1H-pyrrole-3-sulfonamide], with below 0.5 µM. The result for `O=S(=O)(Nc1cc(F)c(OC(F)F)cc1F)c1c[nH]c(-c2cc(Cl)ccc2F)c1` [Cpd 410, 5-(5-chloro-2-fluorophenyl)-N-[4-(difluoromethoxy)-2,5-difluorophenyl]-1H-pyrrole-3-sulfonamide] reads 0.5 to 5 µM.

For the compound `O=S(=O)(Nc1cc(F)c(OC(F)F)cc1F)c1c[nH]c(-c2ccc(F)cc2)c1` [Cpd 411, N-[4-(difluoromethoxy)-2,5-difluorophenyl]-5-(4-fluorophenyl)-1H-pyrrole-3-sulfonamide], the IC50 was in the range of 0.5 to 5 µM. The result for `O=S(=O)(Nc1cc(F)c(OC(F)F)cc1F)c1c[nH]c(-c2ccc(F)cc2F)c1` [Cpd 412, N-[4-(difluoromethoxy)-2,5-difluorophenyl]-5-(2,4-difluorophenyl)-1H-pyrrole-3-sulfonamide] reads 0.5 to 5 µM; that for `O=S(=O)(Nc1cc(F)c(Br)cc1F)c1c[nH]c(-c2ccccc2F)c1` [Cpd 413, N-(4-bromo-2,5-difluorophenyl)-5-(2-fluorophenyl)-1H-pyrrole-3-sulfonamide], below 0.5 µM. As for `O=S(=O)(Nc1cc(F)c(Br)cc1F)c1c[nH]c(-c2cc(Cl)ccc2F)c1` [Cpd 414, N-(4-bromo-2,5-difluorophenyl)-5-(5-chloro-2-fluorophenyl)-1H-pyrrole-3-sulfonamide], the IC50 was in the range of 0.5 to 5 µM. The result for `N#CCOc1cc(F)c(NS(=O)(=O)c2c[nH]cc2Cc2ccccc2)cc1F` [Cpd 415, 4-benzyl-N-[4-(cyanomethoxy)-2,5-difluorophenyl]-1H-pyrrole-3-sulfonamide] reads 0.5 to 5 µM. Then `N#Cc1cc(F)c(NS(=O)(=O)c2c[nH]cc2Cc2cccs2)cc1F` [Cpd 416, N-(4-cyano-2,5-difluorophenyl)-4-(thiophen-2-ylmethyl)-1H-pyrrole-3-sulfonamide], with below 0.5 µM. The result for `O=S(=O)(Nc1cc(F)c(Br)cc1F)c1c[nH]cc1Cc1cccs1` [Cpd 417, N-(4-bromo-2,5-difluorophenyl)-4-(thiophen-2-ylmethyl)-1H-pyrrole-3-sulfonamide] reads 0.5 to 5 µM.
